Source: patent US20050180932A1, “Ultraviolet absorption compositions” (AJINOMOTO CO. INC, priority 2002, published 2005)
Counter-ions that a name gives are not always drawn.

Columns and labels:
[1] = Solubility in water at room temperature; assay type: physicochemical
[2] = Wavelength at the maximum UV absorption and molar absorption coefficient (UV spectrometer, water/alcohol solution); assay type: physicochemical; settings: for Starting UV absorbent: Mol.Abs.Coef. (ε) / Amide-containing guanidine derivative: Mol.Abs.Coef. (ε): in M-1cm-1 (unit assumed); for Starting UV absorbent: Wavelength / Amide-containing guanidine derivative: Wavelength: UV absorption maximum
Protocol: The wavelength showing the maximum absorption was measured by means of a UV spectrometer in a water and/or alcohol solution of R^1COOH or its salt as mentioned in detail in the Examples.
Test 1. Wavelength at the Maximum Absorption

## Cl.N=C(N)NCCCCNC(=O)C=Cc1ccccc1 [Compound 2, N-cinnamoylamidobutylguanidine hydrochloride]
[1]
  Solubility of amide-containing guanidine derivative: >15 wt %

## O=C(O)C=Cc1ccccc1 [Starting UV absorbent of Prep.1, cinnamic acid, reference compound]
[2]; 30% methanol solution
  Starting UV absorbent: Mol.Abs.Coef. (ε): 18661
  Starting UV absorbent: Wavelength: 279 nm

## COc1ccc(C=CC(=O)N[C@@H](CCCNC(=N)N)C(=O)O)cc1 [Compound 3 (HCl salt)]
[1]
  Solubility of amide-containing guanidine derivative: >15 wt %

## COc1ccc(C=CC(=O)O)cc1 [Starting UV absorbent of Prep.3, p-methoxycinnamic acid, reference compound]
[2]; 30% methanol solution
  Starting UV absorbent: Mol.Abs.Coef. (ε): 20845
  Starting UV absorbent: Wavelength: 307 nm
[1]
  Solubility of starting UV absorbent: <0.1 wt %

## CCCCCCCCCCCCOc1ccc(C=CC(=O)NCCCCNC(=N)N)cc1.CCCCCCCCCCCCOc1ccc(C=CC(=O)NCCCCNC(=N)N)cc1.O=S(=O)(O)O [Compound 4, N-paradodecyloxycinnamoylamidobutylguanidine ½ sulfate]
[2]; 40% isopropyl alcohol solution
  Amide-containing guanidine derivative: Mol.Abs.Coef. (ε): 24122
  Amide-containing guanidine derivative: Wavelength: 307 nm

## CCCCCCCCCCCCOc1ccc(C=CC(=O)O)cc1 [Starting UV absorbent of Prep.4, p-dodecyloxycinnamic acid, reference compound]
[2]; 40% isopropyl alcohol solution
  Starting UV absorbent: Mol.Abs.Coef. (ε): 21246
  Starting UV absorbent: Wavelength: 309 nm
[1]
  Solubility of starting UV absorbent: <0.01 wt %

## CCCCCCCCCCCCOc1ccc(/C=C/C(=O)N[C@@H](CCCNC(=N)N)C(=O)O)cc1 [Compound 6, N-paradodecyloxycinnamoylarginine]
[2]; 40% isopropyl alcohol solution
  Amide-containing guanidine derivative: Mol.Abs.Coef. (ε): 25740
  Amide-containing guanidine derivative: Wavelength: 308 nm

## N=C(N)NCCCCNC(=O)C=Cc1ccccc1.N=C(N)NCCCCNC(=O)C=Cc1ccccc1.O=S(=O)(O)O [Compound 1, N-cinnamoylamidobutylguanidine ½ sulfate]
[2]; 30% methanol solution
  Amide-containing guanidine derivative: Mol.Abs.Coef. (ε): 21885
  Amide-containing guanidine derivative: Wavelength: 280 nm

## CCCCCCCCCCCCOc1ccc(C=CC(=O)NCCCCNC(=N)N)cc1.Cl [Compound 5, N-paradodecyloxycinnamoylamidobutylguanidine hydrochloride]
[1]
  Solubility of amide-containing guanidine derivative: >7 wt %

## COc1ccc(C=CC(=O)N[C@@H](CCCNC(=N)N)C(=O)O)cc1 [Compound 3, N-paramethoxycinnamoylarginine]
[2]; 30% methanol solution
  Amide-containing guanidine derivative: Mol.Abs.Coef. (ε): 24977
  Amide-containing guanidine derivative: Wavelength: 307 nm
